From US12173004B2, “Pharmaceutical compositions comprising heterocycle fused gamma carboline prodrugs” (INTRA-CELLULAR THERAPIES, INC., priority 2017, dated 2024)

Columns and labels:
[1] = target: TH (tyrosine hydroxylase) (Mus musculus (Mouse), UniProt P24529); experiment: CNS phosphoprotein profile, nucleus accumbens: TH; format: in vivo, mice; details: for increase in TH phosphorylation: Ser40, haloperidol at 2 mg/kg
Description: (§1) A comprehensive molecular phosphorylation study is also carried out to examine the central nervous system (CNS) profile of the compounds of Example 1 and Example 2. The extent of protein phosphorylation for selected key central nervous system proteins is measured in mice nucleus accumbens.
(§2) Mice were killed 30 minutes to 2 hours post-injection by focused microwave cranial irradiation, which preserves brain phosphoprotein as it exists at the time of death. Nucleus accumbens was then dissected from each mouse brain, sliced and frozen in liquid nitrogen. Samples were further prepared for phosphoprotein analysis via SDS-PAGE electrophoresis followed by phosphoprotein-specific immunoblotting, as described in Zhu H, et al., Brain Res. 2010 Jun. 25; 1342:11-23. Phosphorylation at each site was quantified, normalized to total levels of the protein (non-phosphorylated), and expressed as percent of the level of phosphorylation in vehicle-treated control mice.

[2] = target: ERK2 (Mus musculus (Mouse), UniProt P63085); experiment: CNS phosphoprotein profile, nucleus accumbens: ERK2; format: in vivo, mice; details: 3 mg/kg
Description: as §1, §2

[3] = target: NR2B (Mus musculus (Mouse), UniProt Q01097); experiment: CNS phosphoprotein profile, nucleus accumbens: NR2B; format: in vivo, mice; details: 3 mg/kg, at 30-60 minutes
Chain of NR2B (Q01097 27-1482 limits assumed): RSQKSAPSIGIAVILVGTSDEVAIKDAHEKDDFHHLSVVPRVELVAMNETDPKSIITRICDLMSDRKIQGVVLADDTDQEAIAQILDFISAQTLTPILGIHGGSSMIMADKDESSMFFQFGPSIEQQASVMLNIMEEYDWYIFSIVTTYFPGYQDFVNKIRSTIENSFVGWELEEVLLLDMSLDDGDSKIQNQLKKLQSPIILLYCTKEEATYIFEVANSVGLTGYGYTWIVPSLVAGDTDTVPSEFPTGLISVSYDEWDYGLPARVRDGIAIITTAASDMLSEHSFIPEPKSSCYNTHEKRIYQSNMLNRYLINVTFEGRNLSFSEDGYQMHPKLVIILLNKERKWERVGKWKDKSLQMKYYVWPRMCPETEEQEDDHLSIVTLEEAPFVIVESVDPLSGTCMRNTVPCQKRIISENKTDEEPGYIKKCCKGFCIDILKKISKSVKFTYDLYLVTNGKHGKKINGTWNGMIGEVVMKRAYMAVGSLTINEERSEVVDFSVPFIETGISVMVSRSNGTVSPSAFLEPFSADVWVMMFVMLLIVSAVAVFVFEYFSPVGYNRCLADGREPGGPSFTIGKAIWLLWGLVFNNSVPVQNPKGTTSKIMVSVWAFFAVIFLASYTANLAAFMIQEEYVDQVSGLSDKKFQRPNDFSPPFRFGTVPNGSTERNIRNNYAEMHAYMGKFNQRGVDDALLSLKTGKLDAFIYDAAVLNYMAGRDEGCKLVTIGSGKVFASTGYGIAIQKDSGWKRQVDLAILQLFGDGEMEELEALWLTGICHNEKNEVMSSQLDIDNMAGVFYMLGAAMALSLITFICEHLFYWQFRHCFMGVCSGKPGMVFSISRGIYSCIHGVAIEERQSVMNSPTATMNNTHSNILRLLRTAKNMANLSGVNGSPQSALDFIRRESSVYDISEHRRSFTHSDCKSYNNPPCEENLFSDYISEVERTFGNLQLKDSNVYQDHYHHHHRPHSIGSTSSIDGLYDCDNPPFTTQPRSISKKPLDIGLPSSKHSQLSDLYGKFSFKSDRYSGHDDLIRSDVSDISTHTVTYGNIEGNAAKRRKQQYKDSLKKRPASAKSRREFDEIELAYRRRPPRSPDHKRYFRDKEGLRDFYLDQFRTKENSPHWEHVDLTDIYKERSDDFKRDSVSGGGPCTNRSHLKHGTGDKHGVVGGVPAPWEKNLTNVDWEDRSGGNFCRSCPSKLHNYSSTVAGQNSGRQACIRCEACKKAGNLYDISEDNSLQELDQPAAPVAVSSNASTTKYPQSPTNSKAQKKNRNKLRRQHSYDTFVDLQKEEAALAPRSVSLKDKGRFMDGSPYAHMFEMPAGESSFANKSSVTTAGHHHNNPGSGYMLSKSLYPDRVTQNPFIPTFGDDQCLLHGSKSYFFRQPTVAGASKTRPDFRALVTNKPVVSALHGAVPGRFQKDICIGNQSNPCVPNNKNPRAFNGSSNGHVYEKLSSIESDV
Description: as §1, §2

[4] = target: GluR1 (Mus musculus (Mouse), UniProt P23818); experiment: CNS phosphoprotein profile, nucleus accumbens: GluR1; format: in vivo, mice; details: 3 mg/kg
Chain of GluR1 (P23818 19-907 limits assumed): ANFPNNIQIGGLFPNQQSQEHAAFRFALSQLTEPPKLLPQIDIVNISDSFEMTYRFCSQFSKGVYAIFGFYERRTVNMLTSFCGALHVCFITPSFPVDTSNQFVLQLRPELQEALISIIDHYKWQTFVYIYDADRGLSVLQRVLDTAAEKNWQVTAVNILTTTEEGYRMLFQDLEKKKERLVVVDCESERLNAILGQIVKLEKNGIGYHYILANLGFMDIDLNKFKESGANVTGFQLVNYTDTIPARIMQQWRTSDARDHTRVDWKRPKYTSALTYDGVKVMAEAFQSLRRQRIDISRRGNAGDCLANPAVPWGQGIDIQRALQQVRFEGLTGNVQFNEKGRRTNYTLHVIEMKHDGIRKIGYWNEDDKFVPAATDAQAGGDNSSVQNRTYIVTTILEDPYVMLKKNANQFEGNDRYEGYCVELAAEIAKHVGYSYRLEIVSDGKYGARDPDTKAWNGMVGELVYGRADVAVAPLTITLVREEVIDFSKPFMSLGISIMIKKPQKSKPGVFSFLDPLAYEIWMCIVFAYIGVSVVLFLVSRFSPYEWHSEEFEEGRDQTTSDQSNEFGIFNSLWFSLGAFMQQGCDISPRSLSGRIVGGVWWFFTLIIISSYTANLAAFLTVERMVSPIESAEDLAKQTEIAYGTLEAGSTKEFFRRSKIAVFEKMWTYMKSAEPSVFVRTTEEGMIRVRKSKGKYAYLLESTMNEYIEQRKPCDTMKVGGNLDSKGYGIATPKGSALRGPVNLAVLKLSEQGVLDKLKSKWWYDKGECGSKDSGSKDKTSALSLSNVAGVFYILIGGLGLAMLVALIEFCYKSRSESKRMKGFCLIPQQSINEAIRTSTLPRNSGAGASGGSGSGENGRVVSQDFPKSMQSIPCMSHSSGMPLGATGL
Description: as §1, §2

[5] = target: D1 (Homo sapiens (Human), UniProt P21728); details: read-out: Ki (nM) D1
[6] = target: D2 (Homo sapiens (Human), UniProt P14416); experiment: biochemical; details: read-out: maximum inhibition D2
Chain of D2 (P14416 with tags, fused parts or gaps limits assumed): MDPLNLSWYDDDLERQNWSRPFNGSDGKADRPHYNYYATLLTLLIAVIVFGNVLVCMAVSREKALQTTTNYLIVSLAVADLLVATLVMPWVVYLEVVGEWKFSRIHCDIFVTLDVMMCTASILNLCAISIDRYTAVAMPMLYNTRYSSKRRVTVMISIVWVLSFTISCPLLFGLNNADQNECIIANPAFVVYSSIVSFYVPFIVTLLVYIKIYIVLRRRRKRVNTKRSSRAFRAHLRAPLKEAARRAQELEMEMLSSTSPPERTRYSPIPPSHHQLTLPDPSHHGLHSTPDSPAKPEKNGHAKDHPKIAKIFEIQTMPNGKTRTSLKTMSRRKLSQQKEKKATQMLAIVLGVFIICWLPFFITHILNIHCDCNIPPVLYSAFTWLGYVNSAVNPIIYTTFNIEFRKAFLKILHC

[7] = target: 5-HT2 receptor (Mus musculus (Mouse), UniProt P35363); experiment: DOI-Induced Head Twitch Model in Mice; format: in vivo; details: po, p.o. 0.5 hr before DOI, read-out: EC50 (mg/kg, p.o.) for reducing DOI-induced head twitches
[8] = in vivo; details: rat, iv, 1 mg/kg
[9] = in vivo; details: mouse
[10] = system: Mice; experiment: Mouse Marble-Burying Study (OCD Model); format: in vivo
From the text: The marble burying test is used to measure repetitive and anxiety-related behavior in rodents. It is based on the observation that rats and mice will bury either harmful or harmless objects in their bedding, and it has been used as an animal model to measure the effect of pharmacological interventions in treatment of repetitive behavior disorders, such as OCD.
MPEP is a selective mGluR5 glutamate receptor antagonist. […] Mice in groups (1) are orally administered the vehicle, and mice in group (4) are given an intraperitoneal injection of MPEP just prior to the start of the test.
The test is conducted in rectangular cages with 4-5 cm of wood chip bedding in a room with the window shades lowered and the door closed to minimize distractions. Fifteen clean marbles are evenly spaced on top of the bedding in three rows of five marbles. One mouse is placed in each cage. The mouse and cage is left undisturbed for 30 minutes. At the end of the test, the mouse is removed and the number of marbles buried to at least ⅔ of their depth is counted.

[11] = system: rats; experiment: Pulmonary function in rats; format: in vivo; details: for RR (breaths/min): 60 minutes
[12] = system: C57 mice; experiment: Formalin Paw Test (Inflammatory Pain Model); format: in vivo
[13] = system: rats; experiment: Gastrointestinal motility, activated charcoal transit in rats; details: morphine 5 mg/kg SC
[14] = Cmpd, PO 3.0 mg/kg, 30 min prior to formalin
[15] = Cmpd, SC 0.3 mg/kg, 30 min prior to formalin
[16] = Cmpd, SC 1.0 mg/kg, 30 min prior to formalin
[17] = Cmpd, SC 3.0 mg/kg, 30 min prior to formalin
[18] = morphine 5 mg/kg SC, 30 min prior to formalin

## O=C1CN2c3c(cccc3[C@@H]3CN(CCCC(=O)c4ccc(F)cc4)CC[C@@H]32)N1 [Example 1]
[1]; 3 mg/kg, at 30 minutes or 60 minutes
  effect on tyrosine hydroxylase phosphorylation at Ser40: neither the compound of Example 1 nor of Example 2 has a significant effect
[2]
  ERK2 phosphorylation at Thr183 and Tyr185: slight decrease
[3]
  effect on NR2B phosphorylation at Tyr1472: neither the compound of Example 1 nor of Example 2 has a significant effect
[4]
  GluR1 phosphorylation at Ser845: slight increase
[5]
  Ki: 22 nM
[6]
  inhibition at […]: 47%
[7]
  ED50: 0.23 mg/kg

## O=C1CN2c3c(cccc3[C@@H]3CN(CCCOc4ccc(F)cc4)CC[C@@H]32)N1 [Example 2, (6bR,10aS)-8-(3-(4-fluorophenoxy)propyl)-6b,7,8,9,10,10a-hexahydro-1H-pyrido[3′,4′:4,5]pyrrolo[1,2,3-de]quinoxalin-2(3H)-one]
[8]
  bioavailability: 100%
[9]; brain, po, 10 mg/kg
  Tmax: 15 min
[9]; brain, sc, 0.1 mg/kg
  Tmax: 60 min
[9]; plasma, po, 10 mg/kg
  Tmax: 15 min
[9]; plasma, sc, 0.1 mg/kg
  Tmax: 30 min
[10]; 0.3 mg/kg orally 30 minutes prior, of fifteen marbles, 30 min
  Marbles Buried: 9.3
[11]; 0.3 mg/kg s.c.
  RR (breaths/min): 181 breaths/min
[11]; 1.0 mg/kg s.c.
  RR (breaths/min): 203 breaths/min
[11]; 3.0 mg/kg s.c.
  RR (breaths/min): 190 breaths/min
[11]; 0.3, 1.0 and 3.0 mg/kg s.c., 0, 15, 60, 120, and 240 minutes
  respiratory rate, tidal volume and minute volume compared to vehicle control: no significant differences
[12]; [14]
  Mean Behavior Rating (0-4), 0-10 Min: 0.9
  Mean Behavior Rating (0-4), 0-6 min: 1.5
  Mean Behavior Rating (0-4), 11-40 min: 0.8
  Mean Behavior Rating (0-4), 16-40 min: 0.9
[12]; [15]
  Mean Behavior Rating (0-4), 0-6 min: 2.3
  Mean Behavior Rating (0-4), 11-40 min: 1.0
  Mean Behavior Rating (0-4), 16-40 min: 1.2
[12]; [16]
  Mean Behavior Rating (0-4), 0-10 Min: 1.3
  Mean Behavior Rating (0-4), 0-6 min: 1.9
  Mean Behavior Rating (0-4), 11-40 min: 1.0
  Mean Behavior Rating (0-4), 16-40 min: 1.1
[12]; [17]
  Mean Behavior Rating (0-4), 0-10 Min: 0.8
  Mean Behavior Rating (0-4), 0-6 min: 1.3
  Mean Behavior Rating (0-4), 11-40 min: 0.1
  Mean Behavior Rating (0-4), 16-40 min: 0.1
[12]; mouse, in vivo
  Mean Behavior Rating (0-4), 0-10 Min: 1.5
[7]
  ED50: 0.44 mg/kg

## Cc1cccc(C#Cc2ccccc2)n1 [MPEP, 2-methyl-6-(phenylethynyl)pyridine, reference compound]
[10]; 20 mg/kg intraperitoneal just prior to test, positive control
  Marbles Buried: 0.2

## CN1CC[C@]23c4c5ccc(O)c4O[C@H]2[C@@H](O)C=C[C@H]3[C@H]1C5 [Morphine, morphine, reference compound]
[13]
  reduction in gastric motility: ~50%
[12]; [18]
  Mean Behavior Rating (0-4), 0-10 Min: 1.1
  Mean Behavior Rating (0-4), 0-6 min: 1.7
  Mean Behavior Rating (0-4), 11-40 min: 0.2
  Mean Behavior Rating (0-4), 16-40 min: 0.2

## O=C(CCCN1CCC(O)(c2ccc(Cl)cc2)CC1)c1ccc(F)cc1 [haloperidol]
[1]
  increase in TH phosphorylation: greater than 400%

## Cc1nc2n(c(=O)c1CCN1CCC(c3noc4cc(F)ccc34)CC1)CCCC2 [risperidone]
[1]
  increase in TH phosphorylation: greater than 500%
